The record followed here is patent publication US20240059677A1, “SUBSTITUTED PYRIMIDINE DERIVATIVES AS NICOTINIC ACETYLCHOLINESTERASE RECEPTOR ALPHA 6 MODULATOR” (priority 2020, published 2024).

Each structure is given as a SMILES string.

T1 sequence (Q05901 25-458 V273S): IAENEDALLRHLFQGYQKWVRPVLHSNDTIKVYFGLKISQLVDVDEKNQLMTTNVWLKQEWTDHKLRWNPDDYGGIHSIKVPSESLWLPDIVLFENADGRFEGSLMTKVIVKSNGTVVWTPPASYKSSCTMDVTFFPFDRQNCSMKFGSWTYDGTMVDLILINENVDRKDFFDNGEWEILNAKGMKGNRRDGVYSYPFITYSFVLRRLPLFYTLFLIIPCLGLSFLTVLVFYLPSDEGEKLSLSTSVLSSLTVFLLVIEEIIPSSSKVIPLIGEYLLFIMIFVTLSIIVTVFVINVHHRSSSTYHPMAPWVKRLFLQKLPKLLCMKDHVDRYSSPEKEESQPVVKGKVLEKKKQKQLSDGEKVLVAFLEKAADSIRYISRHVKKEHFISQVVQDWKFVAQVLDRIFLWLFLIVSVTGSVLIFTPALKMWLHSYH
T1 sequence (P17787 26-502, stated change not applied, further chain): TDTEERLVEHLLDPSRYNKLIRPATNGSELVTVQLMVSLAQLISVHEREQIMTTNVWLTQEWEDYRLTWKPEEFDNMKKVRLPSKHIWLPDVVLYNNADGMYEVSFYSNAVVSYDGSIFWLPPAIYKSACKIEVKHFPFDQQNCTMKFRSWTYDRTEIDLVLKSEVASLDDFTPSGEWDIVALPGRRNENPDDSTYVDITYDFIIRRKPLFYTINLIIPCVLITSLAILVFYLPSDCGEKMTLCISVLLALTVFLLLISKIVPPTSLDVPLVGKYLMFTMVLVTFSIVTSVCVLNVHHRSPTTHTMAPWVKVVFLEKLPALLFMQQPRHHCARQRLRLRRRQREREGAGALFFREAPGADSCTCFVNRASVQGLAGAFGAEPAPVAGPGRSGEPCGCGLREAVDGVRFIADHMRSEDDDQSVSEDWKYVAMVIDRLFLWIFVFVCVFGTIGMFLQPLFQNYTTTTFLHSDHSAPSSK
T1 sequence (Q15825+P32297 fused with the stated changes): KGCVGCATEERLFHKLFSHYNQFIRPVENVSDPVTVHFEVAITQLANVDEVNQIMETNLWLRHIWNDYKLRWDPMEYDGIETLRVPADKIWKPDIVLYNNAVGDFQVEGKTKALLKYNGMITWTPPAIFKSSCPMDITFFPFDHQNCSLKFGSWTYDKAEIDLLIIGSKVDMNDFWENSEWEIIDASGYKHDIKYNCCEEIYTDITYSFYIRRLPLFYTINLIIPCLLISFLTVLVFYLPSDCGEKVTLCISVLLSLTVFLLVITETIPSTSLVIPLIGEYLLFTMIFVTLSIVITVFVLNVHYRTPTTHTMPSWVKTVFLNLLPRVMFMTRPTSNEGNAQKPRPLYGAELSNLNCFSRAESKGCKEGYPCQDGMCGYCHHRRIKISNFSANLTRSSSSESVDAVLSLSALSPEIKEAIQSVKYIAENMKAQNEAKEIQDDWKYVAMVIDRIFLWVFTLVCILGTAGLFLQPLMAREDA

One assay addresses T1, human nAChRα6-α3 chimera, in addition to β2 and β3^V273S subunits (Homo sapiens, UniProt P32297+Q15825).
T1 construct: expressed in transfected cells
Put plainly: fluorescence-based calcium assay: inhibition of nicotine stimulated nAChRα6 activity (FLIPR). The conditions noted are these: HEK cell line stably expressing the receptor; 10 min pre-incubation, nicotine EC80; 10-point curve, duplicate wells; read-out: IC50. Here is the method: The ability of the test compounds to inhibit nicotine stimulated nAChRα6 activity was determined in a fluorescence-based calcium assay. Compound activity was determined using a HEK cell line stably expressing a human nAChRα6-α3 chimera, in addition to β2 and β3^V273S subunits (as in Capelli et al, Br J Pharmacol 163(2): 313-29 2011). In this cell line, nicotine stimulated an increase in intracellular calcium concentration, measured as an increase in fluorescence when cells were incubated with a calcium sensitive dye. Test compounds were pre-incubated with cells prior to nicotine stimulation to detect any reduction in the magnitude of the nicotine response.
The day prior to the assay, compounds were serially diluted in DMSO (200× final assay concentration (FAC)), in 384-well plates which were then stored in the dark at room temperature (RT) until use. Cells were seeded at 20 k/well in black, poly-D-lysine coated, clear bottom 384-well plates and incubated for 4 hours at 37° C., followed by overnight incubation at 30° C. The following day, the DMSO compound plate was diluted 1:20 (10×FAC) in assay buffer (HEPES buffered saline solution with 10 mM HEPES, 0.1% bovine serum albumin, 1 mM probenecid). A nicotine solution was prepared in assay buffer (7×FAC) and dispensed into a 384-well plate. The growth media was removed from the cell plate, replaced with 53 μl calcium dye/well (Calcium 5; Molecular Devices) and the plate incubated at 30° C. for 45 minutes. Test compounds were then added to the cells (7 μl of 10×FAC) and incubated for 10 minutes, after which nicotine EC80 (10 μl of 7×FAC) was added and changes in fluorescence measured using a FLIPR plate reader (Molecular Devices).
Compound activity was examined using a 10-point, half-log concentration-response range and each concentration was tested in duplicate wells.
Turning to `Cc1nc(NCC[C@@H]2CCCN2C)ncc1-c1ccc(C(F)(F)F)cc1F` [Example 106b, (S)-5-(2-fluoro-4-(trifluoromethyl)phenyl)-4-methyl-N-(2-(1-methylpyrrolidin-2-yl)ethyl)pyrimidin-2-amine], the IC50 (in general, the concentration at which inhibition is half-maximal) was 0.138 µM. As to `Cc1nc(NCC2N(C)CCC2(F)F)ncc1-c1ccc(F)cc1F` (single isomer, unassigned) [Example 84b, N-((3,3-difluoro-1-methylpyrrolidin-2-yl)methyl)-5-(2,4-difluorophenyl)-4-methyl-pyrimidin-2-amine], the IC50 amounted to 1.65 µM. The same measure, in the same setting: the same measure for `Cc1nc(NCC2CCN(C)CC2)ncc1-c1ccc(C(F)(F)F)cc1F` [Example 101, 5-(2-fluoro-4-(trifluoromethyl)phenyl)-4-methyl-N-((1-methyl-4-piperidinyl)methyl)pyrimidin-2-amine]: 0.109 µM; for `Cc1nc(NCC2CCN(C)C2)ncc1-c1ccc(C(F)(F)F)cc1F` (centres unmarked) [Example 99, 5-(2-fluoro-4-(trifluoromethyl)phenyl)-4-methyl-N-((1-methylpyrrolidin-3-yl)methyl)pyrimidin-2-amine]: 0.083 µM; for `Cc1nc(NC2CCN3CCCC23)ncc1-c1ccc(OC(F)(F)F)cc1F` (single isomer, unassigned) [Example 97d, N-(5-(2-fluoro-4-(trifluoromethoxy)phenyl)-4-methyl-pyrimidin-2-yl)hexahydro-1H-pyrrolizin-1-amine]: 0.299 µM. On the same count and under the same terms, to `Cc1nc(N[C@@H]2CN3CCC2CC3)ncc1-c1ccc(C(F)(F)F)cc1F` [Example 120, (S)—N-(5-(2-fluoro-4-(trifluoromethyl)phenyl)-4-methyl-pyrimidin-2-yl) quinuclidin-3-amine] belongs 0.179 µM. Turning to `Cc1nc(NC2CC(N(C)C)C2)ncc1-c1ccc(F)cc1F` (single isomer, unassigned) [Example 68a, N^1-(5-(2,4-difluorophenyl)-4-methyl-pyrimidin-2-yl)-N^3,N^3-dimethylcyclobutane-1,3-diamine], the IC50 came to 0.078 µM. `COc1ccc(-c2cnc(NC3CCCC(OC)C3)nc2C)c(F)c1` (single isomer, unassigned) [Example 53b, 5-(2-fluoro-4-methoxyphenyl)-N-(3-methoxycyclohexyl)-4-methyl-pyrimidin-2-amine]: the IC50 stood at 0.734 µM.

In the case of `COc1ccc(-c2cnc(NCC3CCCOC3)nc2C)c(F)c1` (centres unmarked) [Example 51, 5-(2-fluoro-4-methoxyphenyl)-4-methyl-N-((tetrahydro-2H-pyran-3-yl)methyl)pyrimidin-2-amine], the IC50 was 1.1 µM. As to `Cc1nc(NC[C@@H]2CCCN2C)ncc1-c1ccc(C(F)(F)F)cc1F` [Example 91b, (S)-5-(2-fluoro-4-(trifluoromethyl)phenyl)-4-methyl-N-((1-methylpyrrolidin-2-yl)methyl)pyrimidin-2-amine], the IC50 came to 0.028 µM. With `COc1ccc(-c2c(C)nc(NCC3CCCN3C)nc2C)c(F)c1` (centres unmarked) [Example 70, 5-(2-fluoro-4-methoxyphenyl)-4,6-dimethyl-N-((1-methylpyrrolidin-2-yl)methyl)pyrimidin-2-amine], the IC50 was 0.072 µM. `Cc1nc(NC[C@H]2CCCN2C)ncc1-c1ccc(F)cc1C(F)(F)F` [Example 92a, (R)-5-(4-fluoro-2-(trifluoromethyl)phenyl)-4-methyl-N-((1-methylpyrrolidin-2-yl)methyl)pyrimidin-2-amine]: the IC50 amounted to 0.033 µM. With `Cc1nc(NCCC2CCCN2C)ncc1-c1ccc(F)cc1F` (centres unmarked) [Example 14, 5-(2,4-difluorophenyl)-4-methyl-N-(2-(1-methylpyrrolidin-2-yl)ethyl) pyrimidin-2-amine], the IC50 amounted to 0.042 µM. The same measure, in the same setting: the same measure for `Cc1nc(NCC2CCCN(C)C2)ncc1-c1ccc(C(F)(F)F)cc1F` (centres unmarked) [Example 107, 5-(2-fluoro-4-(trifluoromethyl)phenyl)-4-methyl-N-((1-methyl-3-piperidinyl)methyl)pyrimidin-2-amine]: 0.154 µM; for `COc1ccc(-c2cnc(NCC3CCCN3C)nc2C)c(F)c1` (single isomer, unassigned) [Example 28a, 5-(2-fluoro-4-methoxyphenyl)-4-methyl-N-((1-methylpyrrolidin-2-yl)methyl)pyrimidin-2-amine]: 0.054 µM; for `COc1ccc(-c2nnc(NCC3CCCCN3C)nc2C)c(F)c1` (single isomer, unassigned) [Example 57a, 6-(2-fluoro-4-methoxyphenyl)-5-methyl-N-((1-methylpiperidin-2-yl)methyl)-1,2,4-triazin-3-amine]: 0.139 µM. Still for that read-out and setting: the same measure for `COc1ccc(-c2cnc(NC3CCCC(N(C)C)C3)nc2C#N)c(F)c1` (single isomer, unassigned) [Example 56a, 2-((3-(dimethylamino)cyclohexyl)amino)-5-(2-fluoro-4-methoxyphenyl) pyrimidine-4-carbonitrile]: 0.133 µM; for `[2H]C([2H])([2H])N1CCC[C@H]1CNc1ncc(-c2ccc(F)cc2F)c(C)n1` [Example 90a, (S)-5-(2,4-difluorophenyl)-4-methyl-N-((1-(trideuteriomethyl)pyrrolidin-2-yl)methyl)pyrimidin-2-amine]: 0.211 µM; for `Cc1nc(N[C@H]2CCNC[C@@H]2F)ncc1-c1ccc(C(F)(F)F)cc1F` [Example 124, 5-(2-fluoro-4-(trifluoromethyl)phenyl)-N-((3S,4S)-3-fluoropiperidin-4-yl)-4-methyl-pyrimidin-2-amine]: 0.903 µM.

`Cc1nc(NC2CC23CCNCC3)ncc1-c1ccc(C(F)(F)F)cc1F` (centres unmarked) [Example 123, N-(5-(2-fluoro-4-(trifluoromethyl)phenyl)-4-methyl-pyrimidin-2-yl)-6-azaspiro[2.5]octan-1-amine]: the IC50 came out at 0.15 µM.

With `COc1ccc(-c2cnc(NCC3CCN(C)C3)nc2C#N)c(F)c1` (centres unmarked) [Example 31, 5-(2-fluoro-4-methoxyphenyl)-2-(((1-methylpyrrolidin-3-yl)methyl)amino) pyrimidine-4-carbonitrile], the IC50 amounted to 0.082 µM. `Cc1nc(NC2CCN3CCCC23)ncc1-c1ccc(OC(F)(F)F)cc1F` (single isomer, unassigned) [Example 97a, N-(5-(2-fluoro-4-(trifluoromethoxy)phenyl)-4-methyl-pyrimidin-2-yl)hexahydro-1H-pyrrolizin-1-amine]: the IC50 was determined as 0.184 µM. On the same count and under the same terms, to `COc1ccc(-c2nnc(NCC3CCCN3C)nc2C)c(F)c1` (racemic) [Example 18, 6-(2-fluoro-4-methoxyphenyl)-5-methyl-N-((1-methylpyrrolidin-2-yl)methyl)-1,2,4-triazin-3-amine] belongs 0.526 µM. `Cc1nc(NC[C@@H]2CCCN2C)ncc1-c1ccc(F)cc1F` [Example 24a, (S)-5-(2,4-difluorophenyl)-4-methyl-N-((1-methylpyrrolidin-2-yl)methyl) pyrimidin-2-amine]: the half-inhibitory concentration (IC50) amounted to 0.062 µM. For the molecule `Cc1nc(N[C@H]2CCN(C(C)C)C2)ncc1-c1ccc(C(F)(F)F)cc1F` [Example 100, (S)-5-(2-fluoro-4-(trifluoromethyl)phenyl)-N-(1-isopropylpyrrolidin-3-yl)-4-methyl-pyrimidin-2-amine], the IC50 was determined as 0.11 µM.

Staying with this assay, now noted: IC50 (μM), HEK cell line stably expressing the receptor; 10 min pre-incubation, nicotine EC80; 10-point curve, duplicate wells.
Turning to `Cc1nc(NC[C@@H]2CCCCN2)ncc1-c1ccc(C(F)(F)F)cc1F` [Example 104b, (S)-5-(2-fluoro-4-(trifluoromethyl)phenyl)-4-methyl-N-(2-piperidinylmethyl)pyrimidin-2-amine], the IC50 was determined as 0.045 µM.
